Data as given in PubChem BioAssay (NCI).
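Briefly, cells in 96-well plates were exposed to five compound concentrations for 48 h, and endpoints were estimated by linear interpolation. TGI: concentration producing complete growth inhibition.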

What was measured:
Test in all cases: DTP human tumour cell line panel, 48 h
[1] = tested on: 786-0 renal
[2] = tested on: A549 NSCLC
[3] = tested on: ACHN renal
[4] = tested on: BT-549 breast
[5] = tested on: CAKI-1 renal
[6] = tested on: CCRF-CEM leukemia
[7] = tested on: COLO 205 colon
[8] = tested on: DU-145 prostate
[9] = tested on: EKVX NSCLC
[10] = tested on: HCC-2998 colon
[11] = tested on: HCT-116 colon
[12] = tested on: HCT-15 colon
[13] = tested on: HL-60(TB) leukemia
[14] = tested on: HOP-62 NSCLC
[15] = tested on: HT29 colon
[16] = tested on: IGROV1 ovarian
[17] = tested on: K-562 leukemia
[18] = tested on: KM12 colon
[19] = tested on: LOX IMVI melanoma
[20] = tested on: M14 melanoma
[21] = tested on: MALME-3M melanoma
[22] = tested on: MCF7 breast
[23] = tested on: MDA-MB-231 breast
[24] = tested on: MDA-MB-435
[25] = tested on: MDA-N
[26] = tested on: MOLT-4 leukemia
[27] = tested on: NCI-H226 lung
[28] = tested on: NCI-H23 lung
[29] = tested on: NCI-H522 lung
[30] = tested on: NCI/ADR-RES ovarian
[31] = tested on: OVCAR-3 ovarian
[32] = tested on: OVCAR-5 ovarian
[33] = tested on: OVCAR-8 ovarian
[34] = tested on: PC-3 prostate
[35] = tested on: RPMI-8226 leukemia
[36] = tested on: RXF 393 renal
[37] = tested on: SF-268 CNS
[38] = tested on: SF-295 CNS
[39] = tested on: SF-539 CNS
[40] = tested on: SK-MEL-28 melanoma
[41] = tested on: SK-MEL-5 melanoma
[42] = tested on: SK-OV-3 ovarian
[43] = tested on: SN12C renal
[44] = tested on: SNB-19 CNS
[45] = tested on: SNB-75 CNS
[46] = tested on: SR leukemia
[47] = tested on: SW-620 colon
[48] = tested on: T-47D breast
[49] = tested on: TK-10 renal
[50] = tested on: U251 CNS
[51] = tested on: UACC-257 melanoma
[52] = tested on: UACC-62 melanoma
[53] = tested on: UO-31 renal

Measured: TGI

C=CCN(Cc1ccncc1)C(=O)C(O)(c1ccccc1)c1ccccc1
56.5 µM: [53]
37.4 µM: [30]
78.6 µM: [35]
> 100 µM: all other assays above
